“Also recorded” adds a separate entry of the source. Read-outs that look alike come from different tables or passages of the source.
Experiments:
hDAT [1] = molecular target: T1, hDAT (Homo sapiens, UniProt Q01959); format: cell-based; conditions: 5 µM, without monensin, HEK293 cells
SERT = SERT (Rattus norvegicus, UniProt P31652); test: Release of [3H]5-HT from rat brain synaptosomes; format: biochemical
human DAT (hDAT) = human DAT (hDAT) (Homo sapiens, UniProt Q01959); test: Radiotracer uptake inhibition in HEK293 cells expressing hDAT; format: cell-based; conditions: for DAT / NET ratio (uptake inhibition): 1/(DAT IC50) divided by 1/(NET IC50); for DAT / SERT ratio (uptake inhibition): 1/(DAT IC50) divided by 1/(SERT IC50); for IC50: IC50 DAT, inhibition of transporter-mediated uptake, hDAT, [3H]MPP+ 20 nM, mean ± SEM, n=3
hNET = hNET (Homo sapiens, UniProt P23975); format: cell-based; conditions: 5 µM, without monensin, HEK293 cells
hSERT [2] = molecular target: T2, hSERT (Homo sapiens, UniProt P31645); format: cell-based; conditions: 5 µM, without monensin, HEK293 cells
DAT [3] = molecular target: T3, DAT (Rattus norvegicus, UniProt P23977); test: Release of [3H]MPP+ from rat striatal synaptosomes; format: biochemical; conditions: for DAT / NET ratio (release): 1/(DAT EC50) divided by 1/(NET EC50); for DAT / NET ratio (release) / DAT / SERT ratio (release): rat brain synaptosomes; for DAT / SERT ratio (release): 1/(DAT EC50) divided by 1/(SERT EC50)
human SERT (hSERT) = human SERT (hSERT) (Homo sapiens, UniProt P31645); test: Radiotracer uptake inhibition in HEK293 cells expressing hSERT; format: cell-based; conditions: for IC50: IC50 SERT, inhibition of transporter-mediated uptake, hSERT, [3H]5HT 100 nM, mean ± SEM, n=3
hSERT [4] = molecular target: T2, hSERT; conditions: for Ionic current mediated via hSERT: cells clamped to −60 mV, representative traces; for Kind of current evoked in SERT-expressing cells: whole-cell patch clamp, in words
NET = test: Release of [3H]MPP+ from rat brain synaptosomes; format: biochemical; conditions: 1/(NET EC50) divided by 1/(SERT EC50)
human NET (hNET) = human NET (hNET) (Homo sapiens, UniProt P23975); test: Radiotracer uptake inhibition in HEK293 cells expressing hNET; format: cell-based; conditions: for NET / SERT ratio (uptake inhibition): 1/(NET IC50) divided by 1/(SERT IC50); for IC50: IC50 NET, inhibition of transporter-mediated uptake, hNET, [3H]MPP+ 20 nM, mean ± SEM, n=3
hDAT [5] = molecular target: T1, hDAT; conditions: ref Solis et al., 2016; cited from earlier work
[6] = system: vesicular monoamine transporter 2 (VMAT2); conditions: at concentrations up to 100 μM; ref Partilla et al., 2006; cited from earlier work
DAT [7] = molecular target: T3, DAT; conditions: in vitro findings; ref Rothman et al., 2002; cited from earlier work
[8] = system: extracellular dopamine and serotonin in rat nucleus accumbens; conditions: systemic administration, ref Rothman et al., 2002; cited from earlier work

SERT, sequence (P31652 whole entry): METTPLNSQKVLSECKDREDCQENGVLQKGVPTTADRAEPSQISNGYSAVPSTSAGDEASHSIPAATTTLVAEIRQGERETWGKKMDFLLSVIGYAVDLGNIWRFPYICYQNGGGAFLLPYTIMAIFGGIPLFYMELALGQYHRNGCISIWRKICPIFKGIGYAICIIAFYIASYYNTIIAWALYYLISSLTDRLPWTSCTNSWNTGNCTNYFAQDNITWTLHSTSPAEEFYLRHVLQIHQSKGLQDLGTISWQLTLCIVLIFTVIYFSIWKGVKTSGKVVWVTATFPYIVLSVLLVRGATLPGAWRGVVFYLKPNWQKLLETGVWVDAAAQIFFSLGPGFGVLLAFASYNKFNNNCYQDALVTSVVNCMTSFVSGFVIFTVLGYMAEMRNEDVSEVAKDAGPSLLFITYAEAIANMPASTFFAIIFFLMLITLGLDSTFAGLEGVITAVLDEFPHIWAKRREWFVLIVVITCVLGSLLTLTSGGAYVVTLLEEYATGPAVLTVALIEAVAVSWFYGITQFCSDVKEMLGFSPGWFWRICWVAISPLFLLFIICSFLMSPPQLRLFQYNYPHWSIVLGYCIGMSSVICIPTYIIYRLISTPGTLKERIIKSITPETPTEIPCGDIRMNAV
T2 sequence (P31645 whole entry): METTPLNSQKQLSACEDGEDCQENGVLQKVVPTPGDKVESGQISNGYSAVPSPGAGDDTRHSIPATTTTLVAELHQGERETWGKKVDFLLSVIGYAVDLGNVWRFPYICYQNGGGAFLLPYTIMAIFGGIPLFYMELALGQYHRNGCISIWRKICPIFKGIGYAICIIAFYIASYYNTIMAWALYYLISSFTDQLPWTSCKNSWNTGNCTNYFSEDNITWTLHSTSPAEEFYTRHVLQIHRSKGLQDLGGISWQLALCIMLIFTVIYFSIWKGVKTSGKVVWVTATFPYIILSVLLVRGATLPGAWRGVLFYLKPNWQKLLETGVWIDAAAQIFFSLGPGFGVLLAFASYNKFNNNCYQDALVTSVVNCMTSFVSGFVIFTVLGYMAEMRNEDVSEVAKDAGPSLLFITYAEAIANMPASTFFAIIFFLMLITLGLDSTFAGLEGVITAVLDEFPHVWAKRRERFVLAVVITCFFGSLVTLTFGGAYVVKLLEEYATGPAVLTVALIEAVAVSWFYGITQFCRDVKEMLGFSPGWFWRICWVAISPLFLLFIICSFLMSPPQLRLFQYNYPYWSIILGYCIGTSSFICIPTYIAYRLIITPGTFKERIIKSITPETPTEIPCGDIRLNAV
human SERT (hSERT), sequence (P31645 whole entry): as above
T1 sequence (Q01959 whole entry): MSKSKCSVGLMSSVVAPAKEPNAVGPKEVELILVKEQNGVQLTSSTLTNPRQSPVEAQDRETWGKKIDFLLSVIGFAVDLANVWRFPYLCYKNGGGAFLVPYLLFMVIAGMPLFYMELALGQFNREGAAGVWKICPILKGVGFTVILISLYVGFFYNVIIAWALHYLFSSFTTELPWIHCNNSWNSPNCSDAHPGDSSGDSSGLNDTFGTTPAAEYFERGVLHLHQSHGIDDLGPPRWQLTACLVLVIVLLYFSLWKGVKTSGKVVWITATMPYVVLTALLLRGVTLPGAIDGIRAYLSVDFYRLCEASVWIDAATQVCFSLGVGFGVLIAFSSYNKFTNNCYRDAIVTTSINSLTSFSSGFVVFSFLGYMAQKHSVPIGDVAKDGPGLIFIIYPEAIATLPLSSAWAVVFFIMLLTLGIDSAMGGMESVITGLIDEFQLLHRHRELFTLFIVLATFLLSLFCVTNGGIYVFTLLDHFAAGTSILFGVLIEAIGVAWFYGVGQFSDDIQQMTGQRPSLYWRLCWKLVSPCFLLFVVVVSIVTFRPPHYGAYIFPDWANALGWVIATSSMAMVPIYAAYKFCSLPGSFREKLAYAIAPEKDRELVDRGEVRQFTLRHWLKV
human DAT (hDAT), sequence (Q01959 whole entry): as above
human NET (hNET), sequence (P23975 whole entry): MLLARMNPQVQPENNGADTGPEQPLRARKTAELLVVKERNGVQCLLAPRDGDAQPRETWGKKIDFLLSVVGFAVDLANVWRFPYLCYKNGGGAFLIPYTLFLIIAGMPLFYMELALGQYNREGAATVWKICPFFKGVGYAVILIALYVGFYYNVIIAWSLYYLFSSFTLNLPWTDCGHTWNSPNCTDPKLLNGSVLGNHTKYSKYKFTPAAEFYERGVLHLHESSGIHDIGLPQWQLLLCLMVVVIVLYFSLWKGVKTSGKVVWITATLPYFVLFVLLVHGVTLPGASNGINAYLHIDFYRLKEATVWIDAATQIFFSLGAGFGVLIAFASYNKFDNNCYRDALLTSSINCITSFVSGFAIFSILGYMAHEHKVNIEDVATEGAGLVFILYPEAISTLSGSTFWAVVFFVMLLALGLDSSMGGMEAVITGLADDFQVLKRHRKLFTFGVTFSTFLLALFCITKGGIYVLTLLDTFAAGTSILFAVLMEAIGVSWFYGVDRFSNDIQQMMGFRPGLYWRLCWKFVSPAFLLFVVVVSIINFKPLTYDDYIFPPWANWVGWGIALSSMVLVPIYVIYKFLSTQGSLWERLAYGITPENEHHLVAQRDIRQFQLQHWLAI
T3 sequence (P23977 whole entry): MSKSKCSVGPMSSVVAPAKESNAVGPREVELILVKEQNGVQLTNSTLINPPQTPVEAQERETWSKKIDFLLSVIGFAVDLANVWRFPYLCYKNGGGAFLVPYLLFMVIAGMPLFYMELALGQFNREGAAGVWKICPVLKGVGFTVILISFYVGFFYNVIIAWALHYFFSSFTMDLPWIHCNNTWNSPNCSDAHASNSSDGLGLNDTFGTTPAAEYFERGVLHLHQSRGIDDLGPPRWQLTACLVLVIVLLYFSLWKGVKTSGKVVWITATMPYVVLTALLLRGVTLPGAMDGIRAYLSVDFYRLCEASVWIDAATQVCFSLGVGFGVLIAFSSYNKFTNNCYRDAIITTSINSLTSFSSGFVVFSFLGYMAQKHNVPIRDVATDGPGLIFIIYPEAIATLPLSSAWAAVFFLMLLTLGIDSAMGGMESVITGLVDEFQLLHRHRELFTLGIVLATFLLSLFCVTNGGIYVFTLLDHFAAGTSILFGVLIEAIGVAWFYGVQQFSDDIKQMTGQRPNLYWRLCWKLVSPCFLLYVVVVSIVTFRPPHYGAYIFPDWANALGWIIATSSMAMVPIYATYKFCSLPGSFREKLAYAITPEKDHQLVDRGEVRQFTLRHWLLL
hNET, sequence (P23975 whole entry): as the sequence (P23975 whole entry) above

| Compound | Effect on efflux of [3H]MPP+ via hDAT versus basal (hDAT [1]) | EC50 (SERT) | DAT / NET ratio (uptake inhibition) (human DAT (hDAT)) | DAT / SERT ratio (uptake inhibition) (human DAT (hDAT)) | IC50 (human DAT (hDAT)) | Effect on efflux of [3H]MPP+ via hNET versus basal (hNET) | Effect on efflux of [3H]5-HT via hSERT versus basal (hSERT [2]) | EC50 (DAT [3]) | DAT / NET ratio (release) (DAT [3]) | DAT / SERT ratio (release) (DAT [3]) | IC50 (human SERT (hSERT)) | Ionic current mediated via hSERT (hSERT [4]; 10 µM) | Kind of current evoked in SERT-expressing cells (hSERT [4]) | NET / SERT ratio (release) (NET) | NET / SERT ratio (uptake inhibition) (human NET (hNET)) | IC50 (human NET (hNET)) | Ionic current mediated via hSERT (hSERT [4]; 30 µM) | also measured |
| --- | --- | --- | --- | --- | --- | --- | --- | --- | --- | --- | --- | --- | --- | --- | --- | --- | --- | --- |
| CC1NCCOC1c1ccc(F)cc1 (centres unmarked) [4-FPM, 2-(4-fluorophenyl)-3-methylmorpholine] | increased tritium outflow above basal levels | 1890 ± 424 nM | 0.96 | 41.2 | 2140 ± 390 nM | increased tritium outflow above basal levels | significantly enhanced basal release; also recorded: moderate release | 191 ± 17 nM | 0.30 | 10 | 88100 ± 1830 nM | −2.5 pA | inwardly directed ionic currents | 33 | 42.9 | 2050 ± 280 nM | – | – |
| CC1NCCOC1c1ccccc1F (centres unmarked) [2-FPM, 2-(2-Fluorophenyl)-3-methylmorpholine] | increased tritium outflow above basal levels | 4810 ± 1260 nM | 0.97 | 340.1 | 1330 ± 90 nM | increased tritium outflow above basal levels | no detectable effect | 112 ± 10 nM | 0.25 | 43 | 454000 ± 15400 nM | – | inwardly directed ionic currents | 172 | 351.4 | 1290 ± 30 nM | −4 pA | Effect on SERT mediated uptake (human SERT (hSERT); at concentrations below 30 µM): no obvious effect |
| CC1NCCOC1c1cccc(F)c1 (centres unmarked) [3-FPM, 2-(3-fluorophenyl)-3-methylmorpholine] | – | 1270 ± 207 nM | 1.31 | 96.4 | 1160 ± 290 nM | – | – | 60 ± 4 nM | 0.28 | 21 | 112000 ± 13100 nM | −3.8 pA | inwardly directed ionic currents | 75 | 73.7 | 1510 ± 170 nM | – | – |
| NCCc1c[nH]c2ccc(O)cc12 [5-HT, 5-hydroxytryptamine, reference compound] | – | – | – | – | – | – | – | – | – | – | – | – | inwardly directed ionic currents | – | – | – | −7 pA | – |
| CC1NCCOC1c1ccccc1 (centres unmarked) [phenmetrazine] | – | – | – | – | – | – | – | – | – | – | – | – | – | – | – | – | – | Current induced in cells expressing hDAT (hDAT [5]): inwardly-directed sodium current; Interaction with VMAT2 as an inhibitor or substrate [6]: does not interact; DAT-selectivity compared to SERT (DAT [7]): at least 10 fold; Extracellular dopamine and serotonin in nucleus accumbens [8]: dose-related elevations |
| COC(=O)[C@H]1[C@@H](OC(=O)c2ccccc2)C[C@@H]2CC[C@H]1N2C [cocaine, reference compound] | – | – | – | – | – | – | – | – | – | – | – | outwardly directed current | – | – | – | – | – | – |

— article PMC7294773 (Neuropharmacology, 2017)
